Reference: patent US8329617B2, “Compositions and methods for synergistic manipulation of plant and insect defenses” (Plant Bioscience Limited, priority 2007, dated 2012)

Key:
Aphis gossypii = assay: A. gossypii protein on cotton plants treated with propyl gallate and cis-jasmone; type: in vivo; conditions: five cotton plants, 3 adult apterous aphids per plant, 7 days
B. tabaci = B. tabaci pupae protein on cotton plants treated with PBO and/or microencapsulated cis-jasmone; type: in vivo, Bemisia tabaci; conditions: for Protein WF (Av): five cotton plants per treatment, 5 adult female whiteflies per plant, ~16 days
Experimental: (§1) A new method for the investigation of the development of whitefly to the pupal stage on tomatoes and cotton was used. […] These were checked for protein after ˜16 days using Bradford reagent.
(§2) Adults were added to the plant 2 h after treatment, and removed after 24 h. The eggs laid were then left for 16-18 days until they reached the pupal stage. The total pupal protein on the plant was tested using the Bradford reagent.

Myzus persicae, US1L = assay: Glasshouse simulator trial: M. persicae protein on pepper plants treated with cis-jasmone and PBO; type: in vivo; conditions: for μg (Av) Total Protein (M. persicae): simulator, 25 pepper plants per treatment, three adult apterous aphids per plant, 7 days
Experimental: (§3) In all bioassay experiments the control plants were sprayed with deionised water. Initially seven treatments were used (Table 1) to test all chemical variables. All treatments were applied hydraulically with a spray simulator after which the plants were separated according to treatment (with cis-jasmone controls being separated) and left for 2 hours prior to insect application.
(§4) Analysis of protein in each treatment was conducted using Bradford Reagent: the data were analysed using the computer programme ‘GraFit’ (Erithacus software, Berkeley). To calculate the calibration curve a single logarithmic curve was used with regression analysis taking the values of the treatment wells (averages of the three readings taken: technical replicates).
To investigate developmental/fecundity effects of cis-jasmone+/−PBO (see Table 1) on Myzus persicae when applied to sweet peppers, adults were added to the plants and then using Bradford reagent, the amount of aphid protein present on the plants 7 days after treatment was measured. Esterase levels were also tested after the same interval to check for the possible induction of metabolic enzymes when using cis-jasmone. Aphids were brushed from all plants and each leaf checked individually to ensure none remained. The aphid mass for each treatment was weighed before total protein was assessed (total from all […] plants in the treatment).
Myzus persicae were applied to sweet peppers at the rate of three adults per plant. Aphids were brushed from all plants and each leaf checked individually to ensure none remained. The aphid mass for each treatment was assessed for total protein (total from all 25 plants in the treatment) using Bradford reagent. The amount of aphid protein present on the plants 7 days after treatment was measured. Plants were put into glasshouse simulators (one/treatment) and kept at 28° C., 12 L: […] and 80% R.H.

aphid (M. persicae) = assay: Bioassay: M. persicae protein on potato, pepper and black mustard plants treated with BABA and/or PBO; type: in vivo, Myzus persicae; conditions: 3 adult apterous aphids per plant, 3 mM BABA root drench, PBO E spray, 7 days
Experimental: In all bioassay experiments the control plants were sprayed with deionised water. Initially seven treatments were used (Table 1b) to test all chemical variables. […] Analysis of protein in each treatment was conducted using Bradford Reagent: the data were analysed using the computer programme ‘GraFit’ (Erithacus software, Berkeley). To calculate the calibration curve a single logarithmic curve was used with regression analysis taking the values of the treatment wells (averages of the three readings taken: technical replicates). Laboratory tests were undertaken to compare effects of combined and single treatments of PBO and BABA on control of aphid (M. persicae) on potato, pepper, and black mustard and whitefly (B. tabaci) on cotton and tomato. All tests included untreated and blank (water) controls, and both single and combined applications of PBO and BABA. […] To investigate developmental/fecundity effects of BABA+/−PBO E (see Table 1) on Myzus persicae when applied to plants, adults were added to the plants and then using Bradford reagent, the amount of aphid protein present on the plants 7 days after treatment was measured. Esterase levels were also tested after the same interval to check for the possible induction of metabolic enzymes when using BABA. Aphids were brushed from all plants and each leaf checked individually to ensure none remained. The aphid mass for each treatment was weighed before total protein was assessed (total from all five plants in the treatment).

esterase [1] = test system: esterase
esterase [2] = conditions: topical application of 1 ul of 0.1% PBO
Experimental: The esterase activity of individuals from a clone of resistant Myzus persicae was measured at zero time, then at hourly intervals following in vivo topical application of 1 ul of 0.1% PBO. […] The assay would also be continued to determine the time taken for the esterase levels to return to normal.

whitefly (B. tabaci) = assay: Bioassay: B. tabaci pupae protein on cotton and tomato plants treated with BABA and/or PBO; type: in vivo, Bemisia tabaci; conditions: 3 mM BABA root drench, PBO E spray
Experimental: In all bioassay experiments the control plants were sprayed with deionised water. Initially seven treatments were used (Table 1b) to test all chemical variables. […] Analysis of protein in each treatment was conducted using Bradford Reagent: the data were analysed using the computer programme ‘GraFit’ (Erithacus software, Berkeley). To calculate the calibration curve a single logarithmic curve was used with regression analysis taking the values of the treatment wells (averages of the three readings taken: technical replicates). Laboratory tests were undertaken to compare effects of combined and single treatments of PBO and BABA on control of aphid (M. persicae) on potato, pepper, and black mustard and whitefly (B. tabaci) on cotton and tomato. All tests included untreated and blank (water) controls, and both single and combined applications of PBO and BABA. […] Adults were added to the plant 2 days after treatment, and removed after 24 h. The eggs laid were then left for 16-18 days until they reached the pupal stage. The total pupal protein on the plant was tested using the Bradford reagent.

Bemisia tabaci, GUA MIX [3] = assay: Bioassay: B. tabaci pupae protein on one tomato plant treated with cis-jasmone and PBO; type: in vivo; conditions: for μg (Av) Total Protein (B. tabaci pupae): one tomato plant, ten adult whiteflies, ~16 days
Experimental: as §3, §4, §1, §2

Bemisia tabaci, GUA MIX [4] = assay: Glasshouse simulator trial: B. tabaci pupae protein on tomato plants treated with cis-jasmone and PBO; type: in vivo; conditions: for μg (Av) Total Protein (B. tabaci pupae): simulator, ten tomato plants per treatment, ten adult whiteflies per plant, ~16 days
Experimental: as §3, §4, §1, §2
As described above 10 adult females were released on to each tomato plant, ten/treatment and after ˜16 days pupae were removed using a scalpel blade. These were checked for total protein using Bradford reagent. Plants were put into glasshouse simulators (one/treatment) and kept at 28° C., 12 L: […] and 80% R.H.

SMILES: CCCCOCCOCCOCc1cc2c(cc1CCC)OCO2 [PBO, 2-(2-butoxyethoxy)ethyl 6-propylpiperonyl ether]
- Protein A (Av) (Aphis gossypii; week 1): 20.05 µg
- Protein A (Av) (Aphis gossypii; week 2): 15.1 µg
- Protein A (Av) (Aphis gossypii; week 3): 16.3 µg
- effect of addition of PBO to microencapsulated cis-jasmone (in words) (B. tabaci; B. tabaci on cotton): potentiates the effect of this new microencapsulated cis-jasmone
- Protein WF (Av) (B. tabaci; week 1): 0.167 µg
- Protein WF (Av) (B. tabaci; week 2): 0.16 µg
- Protein WF (Av) (B. tabaci; week 3): 0.17 µg
- effect of addition of PBO to cis jasmone on efficacy (in words) (Myzus persicae, US1L; M. persicae on pepper, simulator trial): does not significantly increase efficacy
- Av. Total Insect Protein μg (Myzus persicae, US1L; Simulator, M. persicae (US1L) on Pepper (BellBoy), average of weeks 1 to 3): 14.406 µg
- μg (Av) Total Protein (M. persicae) (Myzus persicae, US1L; week 1): 14.72 µg
- μg (Av) Total Protein (M. persicae) (Myzus persicae, US1L; week 2): 14.2 µg
- μg (Av) Total Protein (M. persicae) (Myzus persicae, US1L; week 3): 14.3 µg
- Protein A (Av) (aphid (M. persicae); five black mustard plants, week 1): 19.30 µg
- Protein A (Av) (aphid (M. persicae); five black mustard plants, week 2): 18.90 µg
- Protein A (Av) (aphid (M. persicae); five black mustard plants, week 3): 18.00 µg
- Protein A (Av) (aphid (M. persicae); five pepper plants, week 1): 22.10 µg
- Protein A (Av) (aphid (M. persicae); five pepper plants, week 2): 21.60 µg
- Protein A (Av) (aphid (M. persicae); five pepper plants, week 3): 23.50 µg
- Protein A (Av) (aphid (M. persicae); five potato plants, week 1): 17.60 µg
- Protein A (Av) (aphid (M. persicae); five potato plants, week 2): 22.30 µg
- Protein A (Av) (aphid (M. persicae); five potato plants, week 3): 19.20 µg
- optimal concentration of PBO for esterase inhibition (esterase [1]): 1000 ppm
- time delay for esterase inhibition (esterase [2]; individual cotton bollworms): 5 h
- optimal time delay for esterase inhibition (esterase [2]; individual whiteflies): 10 h
- Protein WF (Av) (whitefly (B. tabaci); cotton plants, ~16 days, week 1): 0.14 µg
- Protein WF (Av) (whitefly (B. tabaci); cotton plants, ~16 days, week 2): 0.14 µg
- Protein WF (Av) (whitefly (B. tabaci); cotton plants, ~16 days, week 3): 0.15 µg
- Protein WF (Av) (whitefly (B. tabaci); tomato plants, week 1): 0.23 µg
- Protein WF (Av) (whitefly (B. tabaci); tomato plants, week 2): 0.33 µg
- Protein WF (Av) (whitefly (B. tabaci); tomato plants, week 3): 0.32 µg
- effect of adding PBO to the cis-jasmone treatment (in words) (Bemisia tabaci, GUA MIX [3]; B. tabaci on tomato, bioassay): clear and highly significant (p<0.001) synergistic effect
- Av. Total Insect Protein μg (Bemisia tabaci, GUA MIX [3]; Bioassay, Bemisia tabaci (GUA MIX), average of weeks 1 to 3): 0.419 µg
- μg (Av) Total Protein (B. tabaci pupae) (Bemisia tabaci, GUA MIX [3]; week 1): 0.28 µg
- μg (Av) Total Protein (B. tabaci pupae) (Bemisia tabaci, GUA MIX [3]; week 2): 0.28 µg
- μg (Av) Total Protein (B. tabaci pupae) (Bemisia tabaci, GUA MIX [3]; week 3): 0.3 µg
- effect of addition of PBO to cis-jasmone on reduction of insect protein (in words) (Bemisia tabaci, GUA MIX [4]; B. tabaci on tomato, simulator trial): potentiates the effect of cis-jasmone
- Av. Total Insect Protein μg (Bemisia tabaci, GUA MIX [4]; Simulator, Bemisia tabaci (GUA MIX) on Tomato (Carousel), average of weeks 1 to 3): 0.156 µg
- μg (Av) Total Protein (B. tabaci pupae) (Bemisia tabaci, GUA MIX [4]; week 1): 0.165 µg
- μg (Av) Total Protein (B. tabaci pupae) (Bemisia tabaci, GUA MIX [4]; week 2): 0.169 µg
- μg (Av) Total Protein (B. tabaci pupae) (Bemisia tabaci, GUA MIX [4]; week 3): 0.134 µg
